Earlier results, collected in article PMC4533831 (Molecular pharmaceutics, 2015).
pIC50: −log10 of the molar value.

Tested on: IGF2R
Conditions: read-out: relative binding affinity IC50; affinity to IGF2R

In the case of `O=C[C@@H](O)[C@@H](O)[C@H](O)[C@H](O)COP(=O)(O)O` [M6P, mannose-6-phosphate], the pIC50 is given as 4.64.
